Measurements from PubChem BioAssay (NCI).
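At the GI50, growth is halved. The concentration for full growth arrest is given as TGI.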

What was measured:
Assay in all cases: NCI-60 cell line screen, 384-well format
[1] = system: NCI-H322M lung
[2] = system: NCI-H460 NSCLC
[3] = system: NCI-H522 lung
[4] = system: NCI/ADR-RES ovarian
[5] = system: OVCAR-3 ovarian
[6] = system: OVCAR-4 ovarian
[7] = system: OVCAR-5 ovarian
[8] = system: OVCAR-8 ovarian
[9] = system: PC-3 prostate
[10] = system: RPMI-8226 leukemia
[11] = system: RXF 393 renal
[12] = system: SF-268 CNS
[13] = system: SF-295 CNS
[14] = system: SF-539 CNS
[15] = system: SK-MEL-2 melanoma
[16] = system: SK-MEL-28 melanoma
[17] = system: SK-MEL-5 melanoma
[18] = system: SK-OV-3 ovarian
[19] = system: SN12C renal
[20] = system: SNB-19 CNS
[21] = system: SR leukemia
[22] = system: SW-620 colon
[23] = system: T-47D breast
[24] = system: TK-10 renal
[25] = system: U251 glioblastoma
[26] = system: UACC-257 melanoma
[27] = system: UACC-62 melanoma
[28] = system: UO-31 renal

## CNC(C)C(=O)N[C@H](C(=O)N1CCC[C@@H]1CN(CCc1ccccc1)C(=O)C(F)(F)F)[C@H](C)OCC#CC#CCO[C@H](C)[C@H](NC(=O)[C@H](C)NC)C(=O)N1CCC[C@H]1CN(CCc1ccccc1)C(=O)C(F)(F)F (stereo partly specified)
[1]
  GI50: 5.6 µM
  TGI: 22.7 µM
[2]
  GI50: 1680 nM
  TGI: 3.07 µM
[3]
  GI50: 906 nM
  TGI: 2150 nM
[4]
  GI50: > 100 µM
  TGI: > 100 µM
[5]
  GI50: 1250 nM
  TGI: 2550 nM
[6]
  GI50: < 10 nM
  TGI: < 10 nM
[7]
  GI50: 58.9 µM
  TGI: > 100 µM
[8]
  GI50: 1050 nM
  TGI: 2240 nM
[9]
  GI50: 4.08 µM
  TGI: 13.4 µM
[10]
  GI50: 617 nM
  TGI: 1940 nM
[11]
  GI50: < 10 nM
  TGI: 62.5 nM
[12]
  GI50: 1740 nM
  TGI: 3.13 µM
[13]
  GI50: 2650 nM
  TGI: 14.5 µM
[14]
  GI50: 1540 nM
  TGI: 2880 nM
[15]
  GI50: < 10 nM
  TGI: < 10 nM
[16]
  GI50: 1450 nM
  TGI: 2780 nM
[17]
  GI50: 149 nM
  TGI: 730 nM
[18]
  GI50: < 10 nM
  TGI: 71.9 nM
[19]
  GI50: 2340 nM
  TGI: 4.06 µM
[20]
  GI50: 6.77 µM
  TGI: 21.4 µM
[21]
  GI50: 342 nM
  TGI: 1960 nM
[22]
  GI50: 1820 nM
  TGI: 3.24 µM
[23]
  GI50: 1600 nM
  TGI: 2960 nM
[24]
  GI50: 2520 nM
  TGI: 5.6 µM
[25]
  GI50: 1710 nM
  TGI: 3.1 µM
[26]
  GI50: 1600 nM
  TGI: 2960 nM
[27]
  GI50: 1730 nM
  TGI: 3.12 µM
[28]
  GI50: > 100 µM
  TGI: > 100 µM
